Results on seven molecules are retold here after patent publication US6004999A, “Triptolide derivatives useful in the treatment of autoimmune diseases” (priority 1998, dated 1999).

One experiment relates to IL-2 production. The experiment in a line: Interleukin-2 assay: IL-2 production by PHA/TPA-stimulated cells (ELISA). The conditions noted are these: PHA 10 μg/mL and 10^-8 M TPA stimulation; 16-24 hours. It counts as cell-based, human. As for the experimental part: (§1) Jurkat E6-1 cell line (ATCC), a human leukemic T cell line or lymphocytes prepared from fresh human blood, are grown in complete culture medium consisting of RPMI-1640 (Mediatech) supplemented with 10% v/v fetal bovine serum (HyClone, Logen, Vermont), penicillin (100 units/mL), streptomycin ([…]), and 2mM L-glutamine (GIBCO, Grand Island, N.Y.). The cells are grown to a concentration of between 1.2 to 1.8×10^6 cells/mL before use. The cells are then centrifuged at low speed and resuspended to a concentration of 1.25×10^6 cells/mL in fresh medium.
(§2) The compounds to be tested are dissolved in DMSO, and water is added to make a 50% DMSO/water solution. The compounds are then diluted in sterile water such that the DMSO concentrations are less then 0.05%. The cells at a concentration of 1.25×10^6 cells/mL are stimulated with phytohemagglutinin 10 μg/mL (PHA) and 10^-8 M phorbol ester (12-O-tetradecanoylphorbol 13-acetate: TPA), (Sigma, St. Louis, Mo.). The compounds are then added and the cells are plated in flat-bottom tissue culture plates (Falcon, Lincoln Park, N.J.), with 250,000 cells/well. Plates are then incubated at 37° C. in a 5% CO2 atmosphere.
After incubation (16-24 hours), the cells are assayed for IL-2 production and cell viability (MTT). IL-2 production is assayed utilizing a solid phase ELISA immunoassay, sold in kit form by R&D Systems, Inc., Minneapolis, Minn.
A general note: An ELISA detects its analyte on a solid surface through an enzyme-linked reagent.

In experiment [1] the test system is Jurkat E6-1 cell line or lymphocytes prepared from fresh human blood. The experiment in a line: Cell viability (MTT mitochondrial enzyme assay). It is filed as cell-based. As to conditions: cell viability after 16-24 hours incubation; MTT 4 hours. As to the method: as §1, §2
Cell viability is measured by the use of a mitochondrial enzyme assay. After removal of the supernatant for the IL-2 assay, Cell Titer 96 (a commercial solution of MTT obtained from Promega, Madison, Wis.), is added to the plates and incubated for 4 hours at 37° C. A solubilization solution is then added and incubated overnight. The plates are then read on an ELISA plate reader at a wavelength of 570 nm. Table II presents the results for the lnterleukin-2 assay, the cell viability assay and the ratio of cell viability/IL-2 inhibition.
A general note: Tetrazolium dyes change colour on reduction, which living cells bring about.

Experiment [2] relates to rat model of adjuvant-induced arthritis. The experiment in a line: Anti-inflammatory activity in the rat model of adjuvant-induced arthritis. It is filed as in vivo, rat (male Wistar-Lewis). As to conditions: 12 consecutive days. As for the experimental part:
(§3) Following generally the procedure of Pearson and Wood, Arth. Rheum., 2, 44 (1959), the anti-inflammatory activity of the following compounds was determined in a rat model of adjuvant-induced arthritis. Male Wistar-Lewisrats (Mollegaard, Breeding Centre Ltd, BIBY, DK 4623 LI, SKENSVED, P.P. Box 28, DK) with a body weight between 160 g and 200 g are used. Freund's adjuvant (0.1 mL, 6 mg Mycobacterium smegmatis suspension per mL in heavy white paraffin oil, Merck/Darmstadt) was injected into the base of the tail. Between day 10 and day 14 of the test, immunopathological processes let to chronic inflammation, especially in the form of arthritic and periarthritic symptoms in all parts of the body. The animals received standardized food Altromin-R (Altrogge, Lage) and had free access to water. The compounds were administered i.p. (a suspension in carboxymethyl cellulose solution in an injection volume of 0.5 mL/100 g body weight) on 12 consecutive days, starting with the day of the adjuvant injection. On day 1 and day 18 of the study, the volume of both hind paws and the body weight were recorded, and in addition on day 18 the arthritis index. Cyclosporin A and Prednisolone were used as standard compounds. In addition, table IV presents the percent change in body weight (weight gain) between day 1 and day 21 of the above test.

Experiment [3] in a line: Percent change in body weight in the adjuvant-induced arthritis rat test. It counts as in vivo, rat (male Wistar-Lewis). As to conditions: between day 1 and day 21, arthritic CMC control 17.9, normal non-arthritic animals 32.0. As for the experimental part:
as §3

In experiment [4] the test system is immunosuppressive activity. The conditions noted are these: in conjunction with another immunosuppressive agent (cyclosporin A, FK506, etc.); WO 94/26265; cited from earlier work.
The test system of another experiment is lymphocyte proliferation. As to conditions: Yang et al. 1992, 1994; cited from earlier work.

≈ marks a conversion by molar mass, not a printed value. Bounds are passed on as bounds.

For the molecule “[1S (1α, 2β,3α, 3aβ,4aR*,4bα, 11aα)1-3-chloro-1, 2,3,3a,4b,5,6,9,9b, 10,11,11a-dodecahydro-1,2,11a-trihydroxy-4b-methyl-2-(1 -methylethyl)-7H-oxireno[4b,5]phenanthro [1,2-c]furan-7-one [Example 2]”, the “IC50 /IL-2” value with IL-2 production was found to be 0.06 µg/mL. Besides, in experiment [1], the “IC50 /MTT” value stood at 550 ng/mL.

Turning to `C[C@]12C=CC(=O)C=C1CC[C@@H]1[C@@H]2[C@@H](O)C[C@@]2(C)[C@H]1CC[C@]2(O)C(=O)CO` [Prednisolone], the % Inhibition (usually the change of the read-out against control, counted positive when it falls) in experiment [2] (15 mg/kg/day i.p.) was determined as 100%. Moreover, the “% Change in Body Weight (weight gain)” value in experiment [3] (15 mg/kg/day i.p.) turned out to be 14.2%.

As to “[1S-(1α, 2β, 3α, 3aβ,4aR, 4bα, 11β, 11aα)-3-chloro-1, 2,3,3a,4b,5,6,9,9b, 10,11,11a-dodecahydro-1,11a-dihydroxy-4b-methyl-2-(1-methylethyl)-2,11 -epoxy-7oxireno[4b,5]phenanthro[1,2-c]furan-7-one [Example 3]”, the “IC50 /IL-2” value in the experiment with IL-2 production is 0.14 µg/mL. For the same molecule, the “IC50 /MTT” value in experiment [1] was > 1,000 ng/mL.

With `C[C@@H](CO)[C@]12O[C@H]1[C@@H]1O[C@]13[C@]1(O[C@H]1C[C@H]1C4=C(CC[C@@]13C)C(=O)OC4)[C@@H]2O` [16-hydroxytriptolide], in experiment [4], the immunosuppressive activity result is given as “increase in immunosuppressive activity relative to the sum of the effects”.

For the molecule `CC(C)C12OC1C1OC13C1(C)CCC4=C(COC4=O)C1CCC3(O)C2O` (stereo not drawn) [Example 1, [5aR-(5aα,6α,6aα,7aα,7bβ,8aS*,8bα)]-3,3b,4,5,5a,6,6a,7a,7b,8b,9,10-dodecahydro-5a,6-dihydroxy-8b-methyl-6a-(1-methylethyl)-1H-bisoxireno[4b,5:6,7]phenanthro[1,2-c]furan-1-one], in the experiment with IL-2 production, the “IC50 /IL-2” value was 0.036 µg/mL (≈ 0.0993 µM). For the same molecule, in experiment [2] (10 mg/kg/day i.p.), the “% Inhibition” value was found to be 90%. The “% Change in Body Weight (weight gain)” value in experiment [3] (10 mg/kg/day i.p.) is 29.9%.

With Cyclosporin A, in experiment [2] (10 mg/kg/day i.p.), the “% Inhibition” value is given as 100%. In experiment [3] (10 mg/kg/day i.p.), the “% Change in Body Weight (weight gain)” value is listed as 27.2%.

In the case of `CC(C)[C@]12O[C@H]1[C@@H]1O[C@]13[C@]1(O[C@H]1C[C@H]1C4=C(CC[C@@]13C)C(=O)OC4)[C@@H]2O` [Triptolide], the “IC50 /MTT” value in experiment [1] amounted to 5 ng/mL (≈ 0.0139 µM). In addition, the “% Inhibition” value stood at 70% in experiment [2] (0.2 mg/kg/day i.p.), 85% in experiment [2] (0.4 mg/kg/day i.p.) and 76% in experiment [2] (0.8 mg/kg/day i.p.). In addition, the “% Change in Body Weight (weight gain)” value in experiment [3] (0.2 mg/kg/day i.p.) came out at 17.2%; in experiment [3] (0.4 mg/kg/day i.p.) it was 22.0%; in experiment [3] (0.8 mg/kg/day i.p.) it was 18.0%. Moreover, the suppress lymphocyte proliferation result in the experiment with lymphocyte proliferation is given as “suppress lymphocyte proliferation”.
